The results in this text go back to paper PMC7828447, “Design, Synthesis and Biological Evaluation of Arylpyridin-2-yl Guanidine Derivatives and Cyclic Mimetics as Novel MSK1 Inhibitors. An Application in an Asthma Model” (Molecules, 2021).

Data set [1] deals with T1, human synthetic MSK1 (14-438-K, Millipore) (Homo sapiens, UniProt O75582).
T1 construct: purchased Millipore 14-438-K
Description: MSK1 enzymatic inhibition assay (Kinase-Glo luminescence). Format: biochemical. To be noted: for MSK1 inhibitory activity (in words): tested at 1 and 10 µM; for inhibition at 1 µM: read-out: MSK1 % Inhibition 1 µM; for inhibition at 10 µM: read-out: MSK1 % Inhibition 10 µM; for IC50: 8 concentrations 0.03-100 µM. How it is done:
All results are summarized in Table 1, Table 2, Table 3, Table 4 and Table 5 and on Figure 4. […]
An orthogonal luminescence-based assay Kinase-Glo® (Promega, Madison, WI, USA) was used to validate the hits, quantifying the amount of the remaining ATP in the solution following the kinase reaction. Enzymatic reactions were performed up to 4h at room temperature in presence of 3 µM ATP. All compounds were tested in quadruplicates at 1 µM and 10 µM. […] Luminescence was measured with EnVision Plate Reader (Perkin Elmer).

The mark [2] stands for this setting: compound at 1 µM, ± Standard Deviation (n = 4).
Where [3] appears, read: compound at 10 µM, ± Standard Deviation (n = 4).
Where [4] appears, read: ± Standard Deviation (n = 4), read-out: MSK1 IC50.
Where [5] appears, read: MSK1 IC50, ± Standard Deviation (n = 4).

Counter-ions that a name gives are not always drawn. Like-named read-outs stand apart in the source and are kept apart here. Some results are limits rather than exact numbers.

T1 sequence (O75582 whole entry): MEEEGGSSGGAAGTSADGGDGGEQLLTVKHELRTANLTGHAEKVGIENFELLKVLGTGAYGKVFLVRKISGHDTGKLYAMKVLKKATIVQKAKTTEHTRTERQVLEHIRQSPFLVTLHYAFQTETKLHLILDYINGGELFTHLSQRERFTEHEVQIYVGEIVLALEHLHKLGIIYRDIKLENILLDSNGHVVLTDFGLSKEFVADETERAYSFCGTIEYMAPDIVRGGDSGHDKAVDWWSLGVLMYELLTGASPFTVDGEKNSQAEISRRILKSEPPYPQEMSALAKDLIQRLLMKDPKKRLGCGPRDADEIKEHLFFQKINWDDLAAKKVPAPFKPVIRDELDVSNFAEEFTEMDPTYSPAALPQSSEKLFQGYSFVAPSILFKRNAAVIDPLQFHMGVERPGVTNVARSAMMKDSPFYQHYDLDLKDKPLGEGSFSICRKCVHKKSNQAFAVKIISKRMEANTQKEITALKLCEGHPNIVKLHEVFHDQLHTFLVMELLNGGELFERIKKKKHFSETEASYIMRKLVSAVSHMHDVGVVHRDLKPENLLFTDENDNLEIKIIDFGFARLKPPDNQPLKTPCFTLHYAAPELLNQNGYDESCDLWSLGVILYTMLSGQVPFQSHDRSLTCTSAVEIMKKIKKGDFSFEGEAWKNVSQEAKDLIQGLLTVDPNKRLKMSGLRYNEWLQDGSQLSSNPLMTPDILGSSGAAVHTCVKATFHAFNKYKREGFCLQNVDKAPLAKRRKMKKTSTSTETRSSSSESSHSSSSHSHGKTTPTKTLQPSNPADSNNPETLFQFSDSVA

On to “6-Phenyl-3,4-dihydrobenzodiazepin-2-amine Hydrochloride [Compound 57]”, for which the “MSK1 % Inhibition 1 µM” value in data set [1] (setting [2]) was found to be 8±6%. Besides, the “MSK1 % Inhibition 10 µM” value in data set [1] (setting [3]) is given as 12±6%. In addition, in data set [1], the “MSK1 inhibitory activity (in words)” value is “inactive”.

The melting point is the temperature, or range, at which the solid turns liquid. In turn, `N=C(N)Nc1cccc(N2CCCCC2)n1` (as salt: salt) [Compound 31, 2-guanidino-6-piperidinopyridine] gave a melting point of 196 to 197 °C.

`N=C(N)Nc1cccc(-c2ccccc2F)n1` (as salt: trifluoroacetate) [Compound 1j, 1-[6-(2-Fluorophenyl)pyridin-2-yl] guanidiniumtrifluoroacetate]: the melting point was 199 to 200 °C.

As for `Cc1ccccc1-c1cccc(NC(=N)N)n1` (as salt: trifluoroacetate) [Compound 1l, 1-[6-(2-Methylphenyl)pyridin-2-yl] guanidiniumtrifluoroacetate], the melting point is 168 to 169 °C.

`N=C(N)Nc1cccc(-c2ccc(Cl)cc2Cl)n1` (as salt: trifluoroacetate) [Compound 1p, 1-[6-(2,4-Dichlorophenyl)pyridin-2-yl] guanidiniumtrifluoroacetate] yielded a melting point of 196 to 197 °C.

Regarding `N=C(N)Nc1cccc(-c2cc(Cl)ccc2Cl)n1` (as salt: trifluoroacetate) [Compound 1q, 1-[6-(2,5-Dichlorophenyl)pyridin-2-yl] guanidiniumtrifluoroacetate], the melting point lay within 151 to 152 °C.

Compound `N=C(N)Nc1cccc(-c2ccncc2)n1` (as salt: trifluoroacetate) [Compound 1r, 1-[6-(Pyridin-4-yl)pyridin-2-yl] guanidiniumtrifluoroacetate] displayed a melting point of 208 to 209 °C.

The compound `N=C(N)Nc1cccc(Cc2ccccc2)n1` (as salt: trifluoroacetate) [Compound 17, 1-(6-Benzylpyridin-2-yl) guanidiniumtrifluoroacetate] had a melting point of 161 to 162 °C.

As usually defined, the inhibition is the drop in the measured response relative to a control, in per cent. Regarding `N=C(N)Nc1cccc(-c2ccc(Cl)cc2)n1` [Compound 1b], in data set [1] (setting [2]), the inhibition at 1 µM was -4 ± 5%. In data set [1] (setting [3]), the inhibition at 10 µM stood at 23 ± 1%. In addition, in data set [1], the “MSK1 inhibitory activity (in words)” value is “inactive”.

For the compound `N=C(N)Nc1cccc(-c2ccc(C(F)(F)F)cc2)n1.O=C(O)C(F)(F)F` [Compound 1c, 1-[6-(4-Trifluoromethylphenyl)pyridin-2-yl] guanidinium trifluoroacetate], the melting point fell in the range of 248 to 249 °C. Moreover, the inhibition at 1 µM in data set [1] (setting [2]) was -6 ± 2%. Moreover, the inhibition at 10 µM in data set [1] (setting [3]) was -1 ± 5%. Besides, in data set [1], the “MSK1 inhibitory activity (in words)” value is “inactive”.

On to `COc1ccc(-c2cccc(NC(=N)N)n2)cc1` [Compound 1d], for which the inhibition at 1 µM in data set [1] (setting [2]) was -5 ± 3%. The inhibition at 10 µM in data set [1] (setting [3]) is -3 ± 4%. The “MSK1 inhibitory activity (in words)” value in data set [1] was “inactive”.

One may read the IC50 as the concentration needed to halve the response being measured. Consider `N=C(N)Nc1cccc(-c2cccc(Cl)c2)n1` [Compound 1e], for which the inhibition at 1 µM in data set [1] (setting [2]) stood at 0%. Moreover, the inhibition at 10 µM in data set [1] (setting [3]) amounted to 45 ± 5%. Also, the IC50 in data set [1] (setting [4]) was determined as 9.7 ± 1 µM.

Take `COc1cccc(-c2cccc(NC(=N)N)n2)c1` [Compound 1f]: the inhibition at 1 µM in data set [1] (setting [2]) is -7 ± 4%. For the same compound, the inhibition at 10 µM in data set [1] (setting [3]) was determined as 16 ± 4%. The “MSK1 inhibitory activity (in words)” value in data set [1] was “inactive”.

As for `N=C(N)Nc1cccc(-c2cccc(C(F)(F)F)c2Cl)n1` [Compound 1i, 1-[6-(2-chloro-3-trifluoromethylphenyl)pyridin-2-yl] guanidinium trifluoroacetate], the inhibition at 1 µM in data set [1] (setting [2]) was 10 ± 5%. Also, the inhibition at 10 µM in data set [1] (setting [3]) worked out at 62 ± 15%. Further, the IC50 in data set [1] (setting [4]) worked out at 8.6 ± 0.9 µM.

Turning to `N=C(N)Nc1cccc(-c2ccccc2Cl)n1` [Compound 1k], the inhibition at 1 µM in data set [1] (setting [2]) stood at 62 ± 8%. For the same compound, the inhibition at 10 µM in data set [1] (setting [3]) was 95 ± 8%. Also, the half-inhibitory concentration (IC50) in data set [1] (setting [4]) is 0.6 ± 0.1 µM.

For `Cc1ccccc1-c1cccc(NC(=N)N)n1` [Compound 1l, 1-[6-(2-Methylphenyl)pyridin-2-yl] guanidiniumtrifluoroacetate], the inhibition at 1 µM in data set [1] (setting [2]) is 4 ± 8%. Also, the inhibition at 10 µM in data set [1] (setting [3]) turned out to be 48 ± 15%. Further, the 50% inhibitory concentration (IC50) in data set [1] (setting [4]) came out at 3.5 ± 0.3 µM.

Regarding `COc1ccccc1-c1cccc(NC(=N)N)n1` [Compound 1n], in data set [1] (setting [2]), the inhibition at 1 µM worked out at 16 ± 3%. In addition, the inhibition at 10 µM in data set [1] (setting [3]) came out at 66 ± 12%. In data set [1] (setting [4]), the IC50 came out at 2.3 ± 0.3 µM.

In the case of `N=C(N)Nc1cccc(-c2ccc(Cl)cc2Cl)n1` [Compound 1p, 1-[6-(2,4-Dichlorophenyl)pyridin-2-yl] guanidiniumtrifluoroacetate], the inhibition at 1 µM in data set [1] (setting [2]) was 2 ± 2%. Further, in data set [1] (setting [3]), the inhibition at 10 µM is 31 ± 7%. Also, in data set [1] (setting [4]), the IC50 is > 30 µM.

As for `N=C(N)Nc1cccc(-c2ccncc2)n1` [Compound 1r, 1-[6-(Pyridin-4-yl)pyridin-2-yl] guanidiniumtrifluoroacetate], the inhibition at 10 µM in data set [1] (setting [3]) was determined as 18 ± 2%.

With `N=C(N)Nc1cccc(-c2cccnc2)n1` [Compound 1s, 1-[6-(Pyridin-3-yl)pyridin-2-yl] guanidinium trifluoroacetate], in data set [1] (setting [3]), the inhibition at 10 µM is 70 ± 7%. In addition, the concentration for half-maximal inhibition (IC50) in data set [1] (setting [4]) came to 5.8 ± 0.6 µM.

In data set [1] (setting [5]), `N=C(N)Nc1cccc(-c2cccnc2Cl)n1` [Compound 1t, 1-(2′-Chloro-[2,3′-bipyridin]-6-yl) guanidiniumtrifluoroacetate] displayed a concentration for half-maximal inhibition (IC50) of 12.6 ± 4 µM. In addition, the inhibition at 10 µM in data set [1] came out at 69 ± 11%.

For `COc1ncccc1-c1cccc(NC(=N)N)n1` [Compound 1u, 1-(2′-Methoxy-[2,3′-bipyridin]-6-yl) guanidiniumtrifluoroacetate], the IC50 in data set [1] (setting [5]) was > 30 µM. Further, in data set [1], the inhibition at 10 µM came out at 42 ± 7% and the “MSK1 inhibitory activity (in words)” value is on record as “abolished the inhibitory activity”.

`N=C(N)Nc1ccc(-c2ccccc2)cn1` [Compound 12, 5-phenyl pyridinylguanidine]: the inhibition at 1 µM in data set [1] (setting [2]) was -10 ± 2%. For the same compound, in data set [1] (setting [3]), the inhibition at 10 µM was -11 ± 1%. For the same compound, in data set [1], the “MSK1 inhibitory activity (in words)” value is “inactive”.

Regarding `N=C(N)Nc1cc(-c2ccccc2)ccn1` [Compound 13], in data set [1] (setting [2]), the inhibition at 1 µM was -4 ± 1%. Further, the inhibition at 10 µM in data set [1] (setting [3]) came to 5 ± 1%. Moreover, the “MSK1 inhibitory activity (in words)” value in data set [1] was “inactive”.

Turning to `N=C(N)Nc1ncccc1-c1ccccc1` [Compound 14], the inhibition at 1 µM in data set [1] (setting [2]) is 1 ± 5%. In addition, in data set [1] (setting [3]), the inhibition at 10 µM was found to be 11 ± 5%. For the same compound, the “MSK1 inhibitory activity (in words)” value in data set [1] is “inactive”.

Take `N=C(N)Nc1cccc(Cc2ccccc2)n1` [Compound 17, 1-(6-Benzylpyridin-2-yl) guanidiniumtrifluoroacetate]: in data set [1], the inhibition at 1 µM is -2 ± 1%, the inhibition at 10 µM is -2 ± 3% and the “MSK1 inhibitory activity (in words)” value is “inactive”.

For `N=C(N)Nc1cccc(CCc2ccccc2)n1` [Compound 24], the inhibition at 1 µM in data set [1] (setting [2]) is -4 ± 1%. Besides, the inhibition at 10 µM in data set [1] (setting [3]) was -8 ± 1%. In addition, the “MSK1 inhibitory activity (in words)” value in data set [1] is “inactive”.

`N=C(N)Nc1ccc(CCc2ccccc2)cn1` [Compound 25]: the inhibition at 1 µM in data set [1] (setting [2]) was 2 ± 4%. Moreover, the inhibition at 10 µM in data set [1] (setting [3]) is 6 ± 4%.

`N=C(N)Nc1cccc(N2CCCCC2)n1` [Compound 31, 2-guanidino-6-piperidinopyridine]: the inhibition at 10 µM in data set [1] (setting [3]) came to 16 ± 4%. Besides, the “MSK1 inhibitory activity (in words)” value in data set [1] is “totally inactive”.

With `NC(=S)Nc1cccc(-c2ccccc2)n1` [Compound 33, 1(6-phenylpyridin-2-yl)thiourea], in data set [1] (setting [2]), the inhibition at 1 µM was determined as 2 ± 10%. The inhibition at 10 µM in data set [1] (setting [3]) came to 5 ± 3%. Also, the “MSK1 inhibitory activity (in words)” value in data set [1] is “inactive”.

On to `COc1ccc(-c2cccc3c2CNC(N)=N3)cc1` [Compound 37c, 5-(4-Methoxyphenyl)-3,4-dihydroquinazolin-2-amine Hydrobromide], for which, in data set [1] (setting [2]), the inhibition at 1 µM is -7 ± 4%. Moreover, in data set [1] (setting [3]), the inhibition at 10 µM is -5 ± 5%.

`NC1=Nc2ccc(-c3ccccc3)cc2CN1` [Compound 43]: the inhibition at 1 µM in data set [1] (setting [2]) amounted to 7 ± 9%. For the same compound, in data set [1] (setting [3]), the inhibition at 10 µM came to 9 ± 6%.

Consider `Nc1nc2c(-c3cccc(Cl)c3Cl)cccc2[nH]1` [Compound 49e, 4-(2,3-Dichlorophenyl)-1H-benzo[d]imidazol-2-amine Hydrobromide], for which the inhibition at 1 µM in data set [1] (setting [2]) was determined as 20 ± 3%. Moreover, the inhibition at 10 µM in data set [1] (setting [3]) was found to be 75 ± 8%. For the same compound, the IC50 in data set [1] (setting [4]) is 3.2 ± 0.2 µM.

Regarding `Nc1nc2cc(-c3ccccc3)ccc2[nH]1` [Compound 50], the inhibition at 1 µM in data set [1] (setting [2]) was -7 ± 5%. The inhibition at 10 µM in data set [1] (setting [3]) was determined as 4 ± 4%.

On to `O=c1[nH]c2cccc(-c3ccccc3Cl)c2[nH]1` [Compound 64], for which, in data set [1] (setting [2]), the inhibition at 1 µM was -18 ± 5%. Further, the inhibition at 10 µM in data set [1] (setting [3]) was 0%. Further, in data set [1], the “MSK1 inhibitory activity (in words)” value is on record as “inactivity”.

On to `Nc1nc2c(-c3ccccc3Cl)cccc2s1` [Compound 67], for which the inhibition at 1 µM in data set [1] (setting [2]) was -28 ± 7%. Moreover, the inhibition at 10 µM in data set [1] (setting [3]) worked out at 4 ± 14%. Moreover, the “MSK1 inhibitory activity (in words)” value in data set [1] is listed as “inactivity”.

For `Nc1nc2c(-c3ccccc3Cl)cccc2n1CCc1ccccc1` [Compound 74a], in data set [1] (setting [2]), the inhibition at 1 µM was -6 ± 3%. In data set [1] (setting [3]), the inhibition at 10 µM amounted to 41 ± 6%.

For `Nc1nc2c(-c3ccccc3Cl)cccc2n1CCO` [Compound 74b], the inhibition at 1 µM in data set [1] (setting [2]) is -2 ± 4%. Also, the inhibition at 10 µM in data set [1] (setting [3]) is 49 ± 13%.

Take `Nc1nc2c(-c3ccccc3Cl)cccc2n1CCCNC(=O)c1ccccc1` [Compound 74c]: in data set [1] (setting [2]), the inhibition at 1 µM was -4 ± 2%. The inhibition at 10 µM in data set [1] (setting [3]) turned out to be 37 ± 5%.

`Nc1nc2c(-c3ccccc3Cl)cccc2n1CCCCc1ccccc1` [Compound 74d]: the inhibition at 1 µM in data set [1] (setting [2]) came out at 1 ± 3%. The inhibition at 10 µM in data set [1] (setting [3]) was determined as 5 ± 3%.

As to `Nc1nc2cccc(-c3ccccc3Cl)c2n1CCc1ccccc1` [Compound 75], the inhibition at 1 µM in data set [1] (setting [2]) is -6 ± 2%. Moreover, the inhibition at 10 µM in data set [1] (setting [3]) worked out at 1 ± 2%.
